According to patent US12338351B2, “Dip molding emulsion, method of producing glove, and glove” (Midori Anzen Co., Ltd., priority 2018, dated 2025):

Assays:
Type in all cases: physicochemical
[1] = MIBK/water distribution ratio of epoxy crosslinking agent; details: 5.0 g water, 5.0 g MIBK, 0.5 g crosslinking agent, 23±2° C., average of three
Experimental: Method of measuring the MIBK/water distribution ratio: in a test tube, 5.0 g of water, 5.0 g of methyl isobutyl ketone (MIBK) and 0.5 g of the epoxy crosslinking agent are precisely weighed and mixed with stirring at 23° C.±2° C. for 3 minutes, and the resulting mixture is centrifuged at 1.0×103 G for 10 minutes and thereby separated into an aqueous layer and an MIBK layer, after which the MIBK layer is fractionated and weighed to calculate the MIBK/water distribution ratio using the following equation: MIBK/water distribution ratio (%)=(Weight of separated MIBK layer (g)−Weight of MIBK before separation (g))/Weight of added crosslinking agent (g)×100 • this measurement is performed three times, and an average value thereof is defined as the MIBK/water distribution ratio.
First, about 5.0 g of water, about 5.0 g of MIBK and about 0.5 g of the epoxy crosslinking agent are precisely weighed and added to a test tube. The weight of MIBK and that of the epoxy crosslinking agent are defined as M (g) and E (g), respectively.
This mixture is thoroughly mixed with stirring for 3 minutes at a temperature of 23° C.±2° C. and subsequently separated into an aqueous layer and an MIBK layer by 10-minute centrifugation at 1.0×10^3 G. Thereafter, the weight of the MIBK layer is measured and defined as ML (g). MIBK/water distribution ratio (%)=(ML (g)−M (g))/E (g)×100
The methyl isobutyl ketone (MIBK)/water distribution ratio (%) was measured for the purpose of checking the amount of the movement of each epoxy crosslinking agent into an MIBK layer in an environment similar to the environment in a latex liquid.
3. Fractionate the thus separated MIBK layer into a disposable cup using a Pasteur pipette and measure the weight of the MIBK layer.
4. Calculate the MIBK/water distribution ratio using the following equation: MIBK/water distribution ratio (%)=(Weight (g) of separated MIBK layer−Weight (g) of MIBK before separation))/(Weight (g) of added crosslinking agent)×100
5. Perform this measurement three times, and calculate the average value thereof as the MIBK/water distribution ratio.
It is noted here that a vortex mixer (VORTEX-GENIE 2 Mixer, standard model; manufactured by Scientific Industries, Inc.) was used for the stirring in the procedure 2.

[2] = Pot life (working life) of dip molding composition; details: XNBR NL120H(a)
From the text: The term “pot life” used herein represents a property of a dip molding composition, and a method of determining the “pot life” will be described below in the section of Examples. Specifically, the “pot life” refers to a period from the preparation of a dip molding composition to the formation of a cured film, in which period the use of the dip molding composition allows the resulting cured film to satisfy specific criteria.
In the present invention, the acceptable level of the pot life of the dip molding composition necessary for mass production is defined as a level at which a film produced using the dip molding composition that has been stored for at least 3 days satisfies a tensile strength of 20 MPa or higher and a fatigue durability of 240 minutes or longer, which are performances required as a glove.
The pot life is determined based on the time from the addition of an epoxy crosslinking agent in the preparation of a dip molding composition to adhesion of the dip molding composition to a glove forming mold. Moreover, the types of XNBRs and epoxy crosslinking agents used in dip molding compositions are shown in the respective Tables below.
The pot life of each dip molding composition was determined by the following procedures. The unit of the pot life is day. The dip molding compositions were prepared using the respective epoxy crosslinking agents and stored, and cured films were produced at one-day intervals. […] The number of days of storage until the last acceptable day was defined as the pot life. In this Experimental Example, experiments were conducted until day 7 as the longest duration of storage.

[3] = Dissolution rate in water of epoxy crosslinking agent; details: 25.0 g in 225 g water (25° C.), stirred 15 minutes, left to stand 1 hour
Experimental: 1. Precisely weigh 25.0 g of the epoxy crosslinking agent composition in a beaker, and add thereto 225 g of water (25° C.).
2. Vigorously stir and mix the resultant at room temperature (23° C.±2° C.) for 15 minutes, and leave the resulting mixture to stand for 1 hour.
3. Measure the volume (mL) of an oily matter precipitated on the bottom of the beaker.
The dissolution rate in water (%) was measured for the purpose of checking the solubility of each epoxy crosslinking agent in water. The dissolution rate in water can be measured by the following procedures.
1. Precisely weigh 25.0 g of the subject crosslinking agent composition in a beaker.
2. Add 225 g of 25° C. water, and vigorously stir the resultant at room temperature for 15 minutes using a magnetic stirrer.
3. After leaving the beaker to stand at room temperature for 1 hour, measure the volume (mL) of an oily matter precipitated on the bottom.

[4] = 0.5 parts by weight epoxy crosslinking agent, fatigue durability 240 minutes acceptable line, experiments until day 7

| Compound | MIBK/water distribution ratio [1] [%] | Dissolution rate in water [3] [%] | other results |
| --- | --- | --- | --- |
| C(OCC1CO1)C(COCC1CO1)OCC1CO1 (stereo not drawn) [epoxy crosslinking agent H, glycerol triglycidyl ether] | 28 | 99 | Pot life [2, 4]: 2 days; Pot life ([2]; added amount of epoxy crosslinking agent increased to 1.0 part by weight): 3 days |
| CC(COCC1CO1)OCC1CO1 (stereo not drawn) [epoxy crosslinking agent M, propylene glycol diglycidyl ether] | 57 | 75 | – |
| diglycerol triglycidyl ether [epoxy crosslinking agent G] | 36 | 88 | Pot life [2, 4]: 3 days |
| polyethylene glycol diglycidyl ether [epoxy crosslinking agent N] | 4 | 99 | – |
| polyglycerol polyglycidyl ether [epoxy crosslinking agent K] | – | 100 | MIBK/water distribution ratio ([1]; listed as K): 6% |
| polyglycerol polyglycidyl ether [epoxy crosslinking agent L] | – | – | MIBK/water distribution ratio ([1]; listed as L): −10% |
| sorbitol polyglycidyl ether [epoxy crosslinking agent I] | – | – | MIBK/water distribution ratio ([1]; listed as I): 26%; Dissolution rate in water ([3]; listed as I): 78% |
| sorbitol polyglycidyl ether [epoxy crosslinking agent J] | – | – | MIBK/water distribution ratio ([1]; listed as J): 23%; Dissolution rate in water ([3]; listed as J): 94% |
